From patent EP3876933B1, “NEUTROPHIL INFLAMMATION INHIBITOR AND USES THEREOF” (Chang Gung University of Science and Technology, priority 2018, dated 2020)

Experiments:
human neutrophils [1] = test: Superoxide anion (O2˙-) generation in fMLF/CB-activated human neutrophils (SOD-inhibitable ferricytochrome c reduction); assay type: cell-based; settings: FMLP/CB-induced human neutrophils, mean ± S.E.M. (n = 3-5); for IC50 / inhibition at 10 µM: Neutrophil; for IC50: read-out: Superoxide Anion IC50; for inhibition at 10 µM / Superoxide Anion Inhibition %: at 10 µM concentration
Description: (§1) Human neutrophils were obtained in lipopolysaccharide-free conditions by means of dextran sedimentation and Ficoll centrifugation.
O2˙^- production was determined based on the SOD-inhibitable reduction of ferricytochrome c. Briefly, neutrophils (6 × 10^5/mL) were treated with a candidate compound at 37 °C at various concentrations (0.001 to 10 µM) for 5 min after being supplementing with 0.5 mg/mL ferricytochrome c and 1 mM Ca^2+. Cells were then activated with fMLF (0.1 µM) for 10 min in the pre-process of cytochalasin B (CB, 1 µg/mL) for 3 min. Changes in absorbance with the reduction of ferricytochrome c at 550 nm were continuously monitored in a double-beam, six-cell positioner spectrophotometer with constant stirring (Hitachi U-3010, Tokyo, Japan). Calculations were based on the differences in the reactions with and without SOD (100 U ml^-1) divided by the extinction coefficient for the reduction of ferricytochrome c (ε = 21.1 mM^-1/10 mm).

human neutrophils [2] = test: Elastase release in fMLF/CB-activated human neutrophils (Methoxysuccinyl-Ala-Ala-Pro-Val-p-nitroanilide substrate); assay type: cell-based; settings: Neutrophil, FMLP/CB-induced human neutrophils, mean ± S.E.M. (n = 3-5); for IC50: read-out: Elastase Release IC50; for inhibition at 10 µM: at 10 µM concentration
Description: as §1
Methoxysuccinyl-Ala-Ala-Pro-Val-p-nitroanilide was employed as the elastase substrate for the determination of elastase release. Briefly, after supplementation with Methoxysuccinyl-Ala-Ala-Pro-Val-p-nitroanilide (100 µM), neutrophils (6 × 10^5/mL) were equilibrated at 37 °C for 2 min and incubated with a candidate compound at various concentrations for 5 min. Cells were then activated with fMLF (0.1 µM) for 10 min in the pre-process of CB (0.5 µg/mL) for 3 min, and changes in absorbance at 405 nm were continuously monitored to evaluate elastase release. Results are expressed as the percentage of elastase release in the drug-free control group, DMSO.

Row | Structure (SMILES) | IC50 (human neutrophils [1]) [µM] | inhibition at 10 µM (human neutrophils [1]) [%] | IC50 (human neutrophils [2]) [µM] | inhibition at 10 µM (human neutrophils [2]) [%] | Superoxide Anion Inhibition % (human neutrophils [1])
1 | Cn1nc(N)c2c(Nc3ccccc3)nc3ccccc3c21 [Compound 3, 4-Anilino-l-methyl-1H-pyrazolo[4,3-c]quinolin-3-amine] | 2.39 ± 0.63 | 93.9 ± 6.32 | 4.09 ± 1.02 | 80.5 ± 2.57 | 
2 | Cn1nc(N)c2c(Nc3ccc(F)cc3)nc3ccccc3c21 [Compound 4, 4-(4-Fluoroanilino)-1-methyl-1H-pyrazolo[4,3-c]quinolin-3-amine] | 1.44 ± 0.22 | 91.2 ± 4.43 | 5.5 ± 1.5 | 68 ± 6.8 | 
3 | COc1ccccc1Nc1nc2ccccc2c2c1c(N)nn2C [Compound 5, 4-(2-Methoxyanilino)-1-methyl-1H-pyrazolo[4,3-c]quinolin-3-amine] | 1.37 ± 0.08 | 90.1 ± 3.38 | 4.65 ± 2.57 | 66 ± 6.51 | 
4 | COc1cccc(Nc2nc3ccccc3c3c2c(N)nn3C)c1 [Compound 6, 4-(3-Methoxyanilino)-1-methyl-1H-pyrazolo[4,3-c]quinolin-3-amine] | > 10 | 27.5 ± 5.47 | > 10 | 33.4 ± 6.04 | 
5 | COc1ccc(Nc2nc3ccccc3c3c2c(N)nn3C)cc1 [Compound 7, 4-(4-Methoxyanilino)-1-methyl-1H-pyrazolo[4,3-c]quinolin-3-amine] | 0.51 ± 0.17 | 99.3 ± 1.51 | 3.77 ± 0.71 | 96.7 ± 6.56 | 
6 | COc1cc(Nc2nc3ccccc3c3c2c(N)nn3C)cc(OC)c1OC [Compound 8, 4-(3,4,5-Trimethoxyanilino)-1-methyl-1H-pyrazolo[4,3-c]quinolin-3-amine] | 0.8 ± 0.09 | 98.2 ± 2.41 | 3.25 ± 0.08 | 89.8 ± 6.51 | 
7 | CSc1ccc(Nc2nc3ccccc3c3c2c(N)nn3C)cc1 [Compound 9, 1-Methyl-4-(4-methylthioanilino)-1H-pyrazolo[4,3-c]quinolin-3-amine] | > 10 | 47.7 ± 3.32 | > 10 | 20.8 ± 3.75 | 
8 | CC(=O)c1ccc(Nc2nc3ccccc3c3c2c(N)nn3C)cc1 [Compound 10, 4-(4-Acetoylanilino)-1-methyl-1H-pyrazolo[4,3-c]quinolin-3-amine] | 1.58 | 85.1 ± 1.66 | 4.63 ± 1.1 | 57.2 | 
9 | Cn1nc(N)c2c(Nc3ccccc3O)nc3ccccc3c21 [Compound 11, 4-(2-Hydroxyanilino)-1-methyl-1H-pyrazolo[4,3-c]quinolin-3-amine] | 0.73 ± 0.23 | 93.5 ± 1.75 | 2.24 ± 0.91 | 101 ± 4.5 | 
10 | Cn1nc(N)c2c(Nc3cccc(O)c3)nc3ccccc3c21 [Compound 12, 4-(3-Hydroxyanilino)-1-methyl-1H-pyrazolo[4,3-c]quinolin-3-amine] | 1.89 ± 0.69 | 93.2 ± 3.66 | 4.62 ± 1.74 | 94.4 ± 8.34 | 
11 | Cn1nc(N)c2c(Nc3ccc(C(F)(F)F)cc3)nc3ccccc3c21 [Compound 14, 4-(4-Trifluoromethylanilino)-1-methyl-1H-pyrazolo[4,3-c]quinolin-3-amine] | 4.56 ± 0.83 | 63.1 ± 2.51 | > 10 | 37.6 ± 6.22 | 
12 | Cn1nc(N)c2c(Nc3ccc(C(=O)O)cc3)nc3ccccc3c21 [Compound 15, 4-[(3-Amino-1-methyl-1H-pyrazolo[4,3-c]quinolin-4-yl)amino]benzoic acid] | 1.83 | 82.9 ± 2.86 | 3.68 ± 0.42 | 79.4 ± 1.91 | 
13 | Cn1nc(N)c2c(Nc3ccccc3S)nc3ccccc3c21 [Compound 16, 2-[(3-amino-1-methyl-1H-pyrazolo[4,3-c]quinolin-4-yl)amino]benzenethiol] | > 10 | 4.05 ± 2.95 | > 10 | -3.34 ± 1.78 | 
14 | Cn1nc(N)c2c(Nc3ccc(Cl)cc3)nc3ccccc3c21 [Compound 17, 4-(4-Chloroanilino)-1-methyl-1H-pyrazolo[4,3-c]quinolin-3-amine] | 3.49 ± 1.25 | 82.8 ± 5.36 | 5.28 ± 0.66 | 75.8 ± 6.64 | 
15 | Cc1ccc(Nc2nc3ccccc3c3c2c(N)nn3C)cc1 [Compound 18, 4-(4-Methylanilino)-1-methyl-1H-pyrazolo[4,3-c]quinolin-3-amine] | 5.21 ± 1.9 | 69.7 ± 7.05 | > 10 | 39.7 ± 3.83 | 
16 | Nc1noc2c1c(Nc1ccccc1)nc1ccccc12 [Compound 19, 4-Anilinoisoxazolo[4,5-c]quinolin-3-amine] | > 10 | 43.7 ± 6.43 | > 10 | 5.81 ± 5.22 | 
17 | Nc1noc2c1c(Nc1ccc(F)cc1)nc1ccccc12 [Compound 20, 4-(4-Fluoroanilino)isoxazolo[4,5-c]quinolin-3-amine] | 6.16 ± 1.18 | 63.2 ± 7.76 | > 10 | 10.7 ± 4 | 
18 | COc1ccccc1Nc1nc2ccccc2c2onc(N)c12 [Compound 21, 4-(2-Methoxyanilino)isoxazolo[4,5-c]quinolin-3-amine] | > 10 | 32.7 ± 4.92 | > 10 | -8.32 ± 2.23 | 
19 | COc1cccc(Nc2nc3ccccc3c3onc(N)c23)c1 [Compound 22, 4-(3-Methoxyanilino)isoxazolo[4,5-c]quinolin-3-amine] | 6.53 ± 0.9 | 69.2 ± 3.14 | > 10 | -3.61 ± 0.98 | 
20 | COc1ccc(Nc2nc3ccccc3c3onc(N)c23)cc1 [Compound 23, 4-(4-Methoxyanilino)isoxazolo[4,5-c]quinolin-3-amine] | 8.59 ± 0.29 | 59.1 ± 2.03 | > 10 | -9.67 ± 3.44 | 
21 | COc1cc(Nc2nc3ccccc3c3onc(N)c23)cc(OC)c1OC [Compound 24, 4-(3,4,5-Trimethoxyanilino)isoxazolo[4,5-c]quinolin-3-amine] | > 10 | 17.1 ± 3.77 | > 10 | -10.6 ± 3.81 | 
22 | CSc1ccc(Nc2nc3ccccc3c3onc(N)c23)cc1 [Compound 25, 4-(4-Methylthioanilino)isoxazolo[4,5-c]quinolin-3-amine] |  |  | > 10 | 18.1 ± 3.97 | enhanced
23 | CC(=O)c1cccc(Nc2nc3ccccc3c3onc(N)c23)c1 [Compound 26, 4-(3-Acetoylanilino)isoxazolo[4,5-c]quinolin-3-amine] | 2.88 ± 0.27 | 76.2 | > 10 | -4.55 ± 5.83 | 
24 | CC(=O)c1ccc(Nc2nc3ccccc3c3onc(N)c23)cc1 [Compound 27, 4-(4-Acetoylanilino)isoxazolo[4,5-c]quinolin-3-amine] | > 10 | 37.4 ± 5.43 | > 10 | -9.53 ± 5.26 | 
25 | Nc1noc2c1c(Nc1ccccc1O)nc1ccccc12 [Compound 28, 4-(2-Hydroxyanilino)isoxazolo[4,5-c]quinolin-3-amine] | 4.54 ± 1.18 | 91 ± 1.69 | 5.77 ± 1.14 | 77.6 ± 4.52 | 
26 | Nc1noc2c1c(Nc1ccc(O)cc1)nc1ccccc12 [Compound 29, 4-(4-Hydroxyanilino)isoxazolo[4,5-c]quinolin-3-amine] | 0.65 ± 0.2 | 91.1 ± 0.38 | > 10 | 29.9 ± 6.66 | 
27 | Nc1noc2c1c(Nc1ccc(C(F)(F)F)cc1)nc1ccccc12 [Compound 30, 4-(4-Trifluoromethylanilino)isoxazolo[4,5-c]quinolin-3-amine] |  |  | 6.23 ± 0.52 | 81.5 ± 6.97 | enhanced
28 | Nc1noc2c1c(Nc1ccc(C(=O)O)cc1)nc1ccccc12 [Compound 31, 4-[(3-aminoisoxazolo[4,5-c]quinolin-4-yl)amino]benzoic acid] | > 10 | 7.44 ± 4.23 | > 10 | -1.4 ± 3.53 | 
29 | Nc1noc2c1c(Nc1ccc(Cl)cc1)nc1ccccc12 [Compound 32, 4-(4-Chloroanilino)isoxazolo[4,5-c]quinolin-3-amine] | > 10 | 38.6 ± 2.3 | > 10 | 3.69 ± 3.42 | 
30 | Cc1ccc(Nc2nc3ccccc3c3onc(N)c23)cc1 [Compound 33, 4-(4-Methylanilino)isoxazolo[4,5-c]quinolin-3-amine] |  |  | 7.24 ± 0.72 | 68 ± 5.23 | enhanced
